Values quoted from earlier work, collected in US8690839B2, “Devices for delivering a medicament and connector for same” (priority 2008, dated 2014).

Key:
[1] = for onset (in words): in vivo
[2] = in vivo

SMILES: CCCCNc1ccc(C(=O)OCCN(C)C)cc1 [Tetracaine, tetracaine]
- onset (in words) [1]: fast onset

SMILES: CCOC(=O)c1ccc(N)cc1 [Benzocaine, benzocaine]
- onset time ([1]; topical use): about 30 seconds
- toxic dose [2]: > 200 mg

SMILES: CCCN1CCCC[C@H]1C(=O)Nc1c(C)cccc1C [Ropivacaine, ropivacaine]
- onset (in words) [1]: slow onset
- toxic dose [2]: about 175 mg
